What was measured:
Test in all cases: Test D controlled growth environment herbicide test, pre- and postemergence
Type in all cases: in vivo
[1] = test system: pigweed (Amaranthus retroflexus)
Summary of the method: (§1)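 Species sown in silt loam and sprayed preemergence, or grown in peat-based medium to 2–18 cm (1- to 4-leaf stage) and sprayed postemergence, with compounds in non-phytotoxic solvent plus surfactant. Visual injury scored versus controls after 14–21 d in a controlled environment, 0 (no effect) to 100 (complete control).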

[2] = test system: barley, winter (winter barley, Hordeum vulgare)
Summary of the method: as §1

[3] = test system: foxtail, green (green foxtail, Setaria viridis)
Summary of the method: as §1

[4] = test system: chickweed (common chickweed, Stellaria media)
Summary of the method: as §1

[5] = test system: deadnettle (henbit deadnettle, Lamium amplexicaule)
Summary of the method: as §1

[6] = test system: windgrass (Apera spica-venti)
Summary of the method: as §1

[7] = test system: lambsquarters (Chenopodium album)
Summary of the method: as §1

[8] = test system: blackgrass (Alopecurus myosuroides)
Summary of the method: as §1

[9] = test system: speedwell (bird's-eye speedwell, Veronica persica)
Summary of the method: as §1

[10] = test system: ryegrass, Italian (Italian ryegrass, Lolium multiflorum)
Summary of the method: as §1

[11] = test system: wheat, winter (winter wheat, Triticum aestivum)
Summary of the method: as §1

[12] = test system: galium (catchweed bedstraw, Galium aparine)
Summary of the method: as §1

kochia (Kochia scoparia) = test system: kochia (Kochia scoparia)
Summary of the method: as §1

[13] = Postemergence, 31 g ai/ha, scale 0 to 100 (0 no effect, 100 complete control)
[14] = Postemergence, 125 g ai/ha, visual rating on scale 0 (no effect) to 100 (complete control), 14 to 21 d
[15] = Postemergence, 250 g ai/ha, scale 0 to 100 (0 no effect, 100 complete control)
[16] = Preemergence, 125 g ai/ha, scale 0 to 100 (0 no effect, 100 complete control)
[17] = Preemergence, 250 g ai/ha, scale 0 to 100 (0 no effect, 100 complete control)
[18] = postemergence, 62 g ai/ha, scale 0 to 100, 0 no effect, 100 complete control
[19] = Preemergence, 62 g ai/ha, scale 0 to 100 (0 no effect, 100 complete control)

Cc1cc(C)c2sc(C)c(-c3c(OC(=O)OCCCl)c(C)nn(C)c3=O)c2c1 [Compound 85]
Pigweed plant response rating [1, 13]: 75
Plant response rating, Pigweed [1, 14]: 85
Plant response rating, Pigweed [1, 15]: 85
Plant response rating (scale of 0 to 100), Pigweed ([1]; Preemergence, 31 g ai/ha): 95
Plant response rating (scale of 0 to 100), Pigweed ([1]; Preemergence, 62 g ai/ha): 100
Plant response rating, Pigweed [1, 16]: 100
Plant response rating, Pigweed [1, 17]: 100
Plant response rating, Pigweed [1, 18]: 80
Barley, Winter plant response rating [2, 13]: 0
Plant response rating, Barley, Winter [2, 14]: 5
Plant response rating, Barley, Winter [2, 15]: 10
Plant response rating (scale of 0 to 100), Barley, Winter ([2]; Preemergence, 31 g ai/ha): 0
Plant response rating, Barley, Winter [2, 19]: 0
Plant response rating, Barley, Winter [2, 16]: 0
Plant response rating, Barley, Winter [2, 17]: 15
Plant response rating, Barley, Winter [2, 18]: 0
Foxtail, Green plant response rating [3, 13]: 75
Plant response rating, Foxtail, Green [3, 14]: 85
Plant response rating, Foxtail, Green [3, 15]: 85
Plant response rating (scale of 0 to 100), Foxtail, Green ([3]; Preemergence, 31 g ai/ha): 25
Plant response rating (scale of 0 to 100), Foxtail, Green ([3]; Preemergence, 62 g ai/ha): 55
Plant response rating, Foxtail, Green [3, 16]: 100
Plant response rating, Foxtail, Green [3, 17]: 100
Plant response rating, Foxtail, Green [3, 18]: 80
Chickweed plant response rating [4, 13]: 90
Plant response rating, Chickweed [4, 14]: 100
Plant response rating, Chickweed [4, 15]: 100
Plant response rating (scale of 0 to 100), Chickweed ([4]; Preemergence, 31 g ai/ha): 100
Plant response rating (scale of 0 to 100), Chickweed ([4]; Preemergence, 62 g ai/ha): 100
Plant response rating, Chickweed [4, 16]: 100
Plant response rating, Chickweed [4, 17]: 100
Plant response rating, Chickweed [4, 18]: 100
Deadnettle plant response rating [5, 13]: 10
Plant response rating, Deadnettle [5, 14]: 40
Plant response rating, Deadnettle [5, 15]: 45
Plant response rating (scale of 0 to 100), Deadnettle ([5]; Preemergence, 31 g ai/ha): 0
Plant response rating (scale of 0 to 100), Deadnettle ([5]; Preemergence, 62 g ai/ha): 0
Plant response rating, Deadnettle [5, 16]: 10
Plant response rating, Deadnettle [5, 17]: 35
Plant response rating, Deadnettle [5, 18]: 15
Windgrass plant response rating [6, 13]: 60
Plant response rating, Windgrass [6, 14]: 80
Plant response rating, Windgrass [6, 15]: 85
Plant response rating (scale of 0 to 100), Windgrass ([6]; Preemergence, 31 g ai/ha): 55
Plant response rating (scale of 0 to 100), Windgrass ([6]; Preemergence, 62 g ai/ha): 70
Plant response rating, Windgrass [6, 16]: 95
Plant response rating, Windgrass [6, 17]: 100
Plant response rating, Windgrass [6, 18]: 70
Lambsquarters plant response rating [7, 13]: 80
Plant response rating, Lambsquarters [7, 14]: 95
Plant response rating, Lambsquarters [7, 15]: 95
Plant response rating (scale of 0 to 100), Lambsquarters ([7]; Preemergence, 31 g ai/ha): 25
Plant response rating (scale of 0 to 100), Lambsquarters ([7]; Preemergence, 62 g ai/ha): 100
Plant response rating, Lambsquarters [7, 16]: 100
Plant response rating, Lambsquarters [7, 17]: 100
Plant response rating, Lambsquarters [7, 18]: 85
Blackgrass plant response rating [8, 13]: 75
Plant response rating, Blackgrass [8, 14]: 90
Plant response rating, Blackgrass [8, 15]: 90
Plant response rating (scale of 0 to 100), Blackgrass ([8]; Preemergence, 31 g ai/ha): 75
Plant response rating, Blackgrass [8, 19]: 80
Plant response rating, Blackgrass [8, 16]: 85
Plant response rating, Blackgrass [8, 17]: 85
Plant response rating, Blackgrass [8, 18]: 80
Speedwell plant response rating [9, 13]: 35
Plant response rating, Speedwell [9, 14]: 80
Plant response rating, Speedwell [9, 15]: 100
Plant response rating (scale of 0 to 100), Speedwell ([9]; Preemergence, 31 g ai/ha): 50
Plant response rating (scale of 0 to 100), Speedwell ([9]; Preemergence, 62 g ai/ha): 90
Plant response rating, Speedwell [9, 16]: 100
Plant response rating, Speedwell [9, 17]: 100
Plant response rating, Speedwell [9, 18]: 70
Ryegrass, Italian plant response rating [10, 13]: 80
Plant response rating, Ryegrass, Italian [10, 14]: 85
Plant response rating, Ryegrass, Italian [10, 15]: 90
Plant response rating (scale of 0 to 100), Ryegrass, Italian ([10]; Preemergence, 31 g ai/ha): 55
Plant response rating (scale of 0 to 100), Ryegrass, Italian ([10]; Preemergence, 62 g ai/ha): 80
Plant response rating, Ryegrass, Italian [10, 16]: 85
Plant response rating, Ryegrass, Italian [10, 17]: 90
Plant response rating, Ryegrass, Italian [10, 18]: 85
Wheat, Winter plant response rating [11, 13]: 0
Plant response rating, Wheat, Winter [11, 14]: 0
Plant response rating, Wheat, Winter [11, 15]: 10
Plant response rating (scale of 0 to 100), Wheat, Winter ([11]; Preemergence, 31 g ai/ha): 0
Plant response rating (scale of 0 to 100), Wheat, Winter ([11]; Preemergence, 62 g ai/ha): 0
Plant response rating, Wheat, Winter [11, 16]: 5
Plant response rating, Wheat, Winter [11, 17]: 15
Plant response rating, Wheat, Winter [11, 18]: 0
Galium plant response rating [12, 13]: 85
Plant response rating, Galium [12, 14]: 100
Plant response rating, Galium [12, 15]: 100
Plant response rating (scale of 0 to 100), Galium ([12]; Preemergence, 31 g ai/ha): 30
Plant response rating (scale of 0 to 100), Galium ([12]; Preemergence, 62 g ai/ha): 70
Plant response rating, Galium [12, 16]: 75
Plant response rating, Galium [12, 17]: 100
Plant response rating, Galium [12, 18]: 95
Kochia plant response rating (kochia (Kochia scoparia); [13]): 40
Plant response rating, Kochia (kochia (Kochia scoparia); [14]): 70
Plant response rating, Kochia (kochia (Kochia scoparia); [15]): 75
Plant response rating (scale of 0 to 100), Kochia (kochia (Kochia scoparia); Preemergence, 31 g ai/ha): 5
Plant response rating (scale of 0 to 100), Kochia (kochia (Kochia scoparia); Preemergence, 62 g ai/ha): 10
Plant response rating, Kochia (kochia (Kochia scoparia); [16]): 10
Plant response rating, Kochia (kochia (Kochia scoparia); [17]): 45
Plant response rating, Kochia (kochia (Kochia scoparia); [18]): 65

Reference: patent US10597388B2, “Pyridazinone herbicides” (FMC CORPORATION, priority 2014, dated 2020)
